{"source": "patent US12150972B1", "about": "“Egg white protein anti-inflammatory peptide and application thereof” (Hangzhou BIBAU Biotechnology Co., Ltd., priority 2023, dated 2024)", "key": {"[1]": {"test_system": "TNF-α secretion in RAW264.7 cells induced by LPS", "experiment": "TNF-α secretion in LPS-induced RAW264.7 cells (ELISA)", "format": "cell-based, mouse", "details": "RAW264.7 induced by LPS; sample 500 μg/mL", "method": "(§1) The three groups were cultured in the incubator for 24 hours, and the supernatants were collected. According to the instructions of the ELISA kit, the absorbance value at 450 nm was measured and the secretion amounts of inflammatory factors TNF-α, IL-6 and IL-1β were calculated. The inhibition ratios of the three inflammatory factors were calculated by formula (3).\n(§2) In the formula, C refers to the inhibition ratio (%) of inflammatory factors, Co is the secretion amount of inflammatory factors in the blank group, C1 is the secretion amount of inflammatory factors in the LPS group, and C2 is the secretion amount of inflammatory factors in the sample group."}, "[2]": {"experiment": "in vitro", "details": "mouse, RAW264.7 macrophage cells induced by LPS, cell viability", "procedure": "The cell viability of RAW264.7 cells was determined by MTT method. RAW264.7 cells in the logarithmic growth phase were seeded in a 96-well plate at 100 μL/well with a density of 4×10^4/well. The outermost layer of the 96-well plate was sealed by PBS solution, and the 96-well plate was transferred to an incubator for culturing for 12 to 24 hours. The incubator temperature was 37° C. and the CO2 concentration was 5%. After the cells adhered to the wall, the waste supernatant was extracted from the 96-well plate. A blank group (added with 100 μL of culture medium), an LPS group (added with 100 μL of LPS with a final mass concentration of 1 μg/mL), and a sample group (added with 100 μL of peptides with different or the same mass concentration and added with LPS with a final mass concentration of 1 μg/mL after 2 hours of reaction) were set, and each group was performed in triplicate. After culturing for 24 hours, 20 μL of MTT solution with a concentration of 5 mg/mL was added into each well. After continuing to culture in the incubator for 4 hours, 100 μL of dimethyl sulfoxide (DMSO) was added and shaken gently for 10 min. The absorbance value at 570 nm was measured with a microplate reader, and the cell viability (%) was calculated according to the formula (1).\nIn the formula (1), V refers to the cell viability (%), A1 is the absorbance value of the blank group at 570 nm, and A2 is the absorbance value of the sample group at 570 nm."}, "[3]": {"test_system": "NO production in RAW264.7 cells induced by LPS", "experiment": "NO production amount in LPS-induced RAW264.7 cells (Griess method)", "format": "cell-based, mouse", "details": "for NO production amount: RAW264.7 induced by LPS 1 μg/mL", "method": "The NO production amount in the cell was measured by Griess method. The grouping, treatment and culture methods were the same as 1.2. After 24 hours of culture, the supernatant was collected and the NO production amount was measured using a NO detection kit. 50 μL of cell supernatant, 50 μL of Griess I reagent, and 50 μL of Griess II reagent were mixed, and stood for 5 minutes, and then the absorbance value at 540 nm was measured. According to the instructions of the NO kit, the NO production amount in each sample was calculated, and the inhibition ratio of NO production amount is calculated by formula (2).\nIn the formula, B refers to the NO inhibition ratio (%), B0 is the NO production amount of the blank group, B1 is the NO production amount of the LPS group, and B2 is the NO production amount of the sample group."}, "[4]": {"test_system": "IL-6 secretion in RAW264.7 cells induced by LPS", "experiment": "IL-6 secretion in LPS-induced RAW264.7 cells (ELISA)", "format": "cell-based, mouse", "details": "RAW264.7 induced by LPS; sample 500 μg/mL", "method": "as §1, §2"}, "[5]": {"test_system": "IL-1β secretion in RAW264.7 cells induced by LPS", "experiment": "IL-1β secretion in LPS-induced RAW264.7 cells (ELISA)", "format": "cell-based, mouse", "details": "RAW264.7 induced by LPS; sample 500 μg/mL", "method": "as §1, §2"}}, "note": "Peptide text beside a SMILES is read from it."}
{"smiles": "N[C@@H](Cc1ccccc1)C(=O)NCC(=O)N1CCC[C@H]1C(=O)N[C@@H](Cc1c[nH]cn1)C(=O)O", "note": "[FGPH, Phe-Gly-Pro-His] (H-FGPH-OH)", "values": [{"measurement": "inhibition ratio of TNF-α secretion", "setting": "[1]", "result": "28.07±2.10", "unit": "%"}, {"measurement": "viability at 24 h, 125 µg/mL", "setting": "[2]", "result": "> 109", "unit": "%"}, {"measurement": "viability at 24 h, 250 µg/mL", "setting": "[2]", "result": "> 109", "unit": "%"}, {"measurement": "viability at 24 h, 500 µg/mL", "setting": "[2]", "result": "> 109", "unit": "%"}, {"measurement": "viability at 24 h, 1000 µg/mL", "setting": "[2]", "result": "< 97", "unit": "%"}, {"measurement": "NO production amount", "setting": "[3]; sample 125 μg/mL", "result": "18.07 ± 0.31", "unit": "µM"}, {"measurement": "NO production amount", "setting": "[3]; sample 250 μg/mL", "result": "16.23 ± 0.31", "unit": "µM"}, {"measurement": "NO production amount", "setting": "[3]; sample 500 μg/mL", "result": "13.82 ± 0.31", "unit": "µM"}, {"measurement": "inhibition ratio of NO production amount", "setting": "[3]; RAW264.7 induced by LPS, sample 500 μg/mL", "result": "64.41±0.47", "unit": "%"}, {"measurement": "inhibition ratio of IL-6 secretion", "setting": "[4]", "result": "41.72±1.83", "unit": "%"}, {"measurement": "inhibition ratio of IL-1β secretion", "setting": "[5]", "result": "52.43±2.29", "unit": "%"}]}
